# From patent publication US20250177334A1, “Pharmaceutical Compositions Comprising Phenylsulfonamides, and Their Therapeutic Applications” (Cura Therapeutics, LLC, priority 2018, published 2025)
# Where “and” joins values, the source holds several entries; their conditions need not be identical. Equal values may be shown once. Read-outs that look alike come from different tables or passages of the source.
# Legend:
# [1] = Metabolic stability in fresh human plasma (LC/MS/MS peak heights); assay type: in vitro ADME; details: for % Remaining: plasma; for Peak Height: duplicate aliquots
# Experimental: Compounds A1-A3 were independently spiked directly into an individual lot of fresh human plasma, with sodium heparin as the anticoagulant, such that the final assay concentration of each compound was 1.00 μM. After incubation at room temperature for 0, 0.5, 1, 2, and 4 hours, samples were removed and aliquoted for analysis. Valacyclovir was used as a positive control. The plasma samples containing a test compound were processed by protein precipitation.
# A primary 1.00 mM stock solution of a test compound was prepared in either acetonitrile or acetonitrile:water (1:1, v/v). A 0.200 mM working stock was made from the primary stock in acetonitrile water (1:1, v/v), which was used in the human plasma stabiltity study. The primary and working stock solutions were stored at −20° C. when not in use. When it was used in the assay, the working stock was kept at room temperature for as short a time as possible.
# The human plasma stabiltity study was initiated by adding 5.00 μL of a test compound stock solution to 0.995 mL of human plasma (sodium heparin) in a 1.7-mL snap tube. Time zero points were generated by immediately removing duplicate 50.0 μL aliquots of plasma after initiating each incubation and quenching in 150 μL of methanol. The plasma incubation tubes were capped and remained at room temperature between time points.
# After 0.5, 1, 2, and 4 hours of incubation, duplicate 50.0 μL aliquots of plasma were removed and placed into the extraction tubes containing 150 μL of methanol. Each time point was immediately extracted by vortex mixing, centrifuged, and the supernate removed to HPLC vial for analysis. After extraction of all samples, the extracts were analyzed by LC/MS/MS.
# LC/MS/MS analysis of the incubation solutions was conducted by initial separation of a test compound peak using chromatography prior to detection by a mass spectrometer. The LC/MS system was comprised of a HPLC coupled with a TQS-Micro or Quattro Premier. The mobile phase was nebulized using heated nitrogen in a Z-spray source/interface set to electrospray in either positive ionization mode or negative ionization mode. The ionized compounds were detected using MS/MS. The data was acquired using MassLynx.
# The peak heights for compounds A1-A3 are presented in Table 1, whereas the peak heights for the positive control are shown in Table 2.
# [2] = Pharmacokinetic study of compound A2 in rats; assay type: in vivo
# Experimental: A pharmacokinetic study on compound A2 was carried out in rats.
# [3] = Compound A2 concentration in the CSF of rats; assay type: in vivo
# Experimental: Compound A2 in the CSF of the rats was also analyzed. The results are shown in Table 4 below, wherein BQL stands for below the quantifiable limit of 2.0 ng/mL.
# [4] = fresh human plasma, 1.00 μM, room temperature, 0 h
# [5] = fresh human plasma, 1.00 μM, room temperature, 0.5 h
# [6] = fresh human plasma, 1.00 μM, room temperature, 4 h
structure (smiles),measurement,setting,value
"CS(=O)(=O)Nc1cccc(NS(=O)(=O)c2ccc(C(=O)O)cc2)c1 [Compound A1, 4-(N-(3-(methylsulfonamido)phenyl)sulfamoyl)benzoic acid]",Mean Height,"[1]; human, 0 h, 1 μM","4,250"
same,Mean Height,"[1]; human, 0.5 h, 1 μM","3,740"
same,Mean Height,"[1]; human, 1 h, 1 μM","3,680"
same,Mean Height,"[1]; human, 2 h, 1 μM","3,510"
same,Mean Height,"[1]; human, 4 h, 1 μM","3,670"
same,% Remaining,"[1]; human, 0 h, 1 μM",100%
same,% Remaining,"[1]; human, 0.5 h, 1 μM",88%
same,% Remaining,"[1]; human, 1 h, 1 μM",87%
same,% Remaining,"[1]; human, 2 h, 1 μM",83%
same,% Remaining,"[1]; human, 4 h, 1 μM",86%
"Cc1ccc(C(F)(F)F)cc1NS(=O)(=O)c1cccc(C(=O)O)c1 [Compound A2, 3-(N-(2-methyl-5-(trifluoromethyl)phenyl)sulfamoyl)benzoic acid]",Mean Height,"[1]; human, 0 h, 1 μM","12,600"
same,Mean Height,"[1]; human, 0.5 h, 1 μM","13,300"
same,Mean Height,"[1]; human, 1 h, 1 μM","13,000"
same,Mean Height,"[1]; human, 2 h, 1 μM","13,000"
same,Mean Height,"[1]; human, 4 h, 1 μM","13,100"
same,% Remaining,"[1]; human, 0 h, 1 μM",100%
same,% Remaining,"[1]; human, 0.5 h, 1 μM",106%
same,% Remaining,"[1]; human, 1 h, 1 μM",103%
same,% Remaining,"[1]; human, 2 h, 1 μM",103%
same,% Remaining,"[1]; human, 4 h, 1 μM",104%
same,AUCINF/Dose,[2]; IV,13800
same,CL or CL/F,[2]; IV,1.2 mL/min/kg
same,HL,[2]; IV,5 h
same,AUCINF/Dose,[2]; PO,6420
same,HL,[2]; PO,7 h
same,AUC(0-inf),"[2]; rat, in vivo, 1 mg/kg, IV",13800 ng·h/mL
same,AUC(0-t),"[2]; rat, in vivo, 1 mg/kg, IV",13400 ng·h/mL
same,Cmax,"[2]; rat, in vivo, 1 mg/kg, IV",4310 ng/mL
same,AUC(0-inf),"[2]; rat, in vivo, 10 mg/kg, PO",64200 ng·h/mL
same,AUC(0-t),"[2]; rat, in vivo, 10 mg/kg, PO",56200 ng·h/mL
same,Cmax,"[2]; rat, in vivo, 10 mg/kg, PO",4590 ng/mL
same,Tmax,"[2]; rat, in vivo, 10 mg/kg, PO",4 h
same,bioavailability,"[2]; rat, in vivo, 10 mg/kg, PO",45%
same,CL/F,"[2]; rat, in vivo, 10 mg/kg, PO, read-out: CL or CL/F",2.6 mL/min/kg
same,CSF Concentration,"[3]; IV, 0.00 h, individual animals",BQL (BQL stands for below the quantifiable limit of 2.0 ng/mL)
same,CSF Concentration,"[3]; IV, 0.5 h, individual animals",65 ng/mL and 0.95 ng/mL and BQL (BQL stands for below the quantifiable limit of 2.0 ng/mL)
same,CSF Concentration,"[3]; IV, 1.0 h, individual animals",4.2 ng/mL and 17 ng/mL
same,CSF Concentration,"[3]; IV, 2.0 h, individual animals",BQL (BQL stands for below the quantifiable limit of 2.0 ng/mL)
same,CSF Concentration,"[3]; IV, 8.0 h, individual animals",BQL (BQL stands for below the quantifiable limit of 2.0 ng/mL)
same,CSF Concentration,"[3]; IV, 12 h, individual animals",BQL (BQL stands for below the quantifiable limit of 2.0 ng/mL)
same,CSF Concentration,"[3]; IV, 24 h, individual animals",BQL (BQL stands for below the quantifiable limit of 2.0 ng/mL)
same,CSF Concentration,"[3]; PO, 0.00 h, individual animals",BQL (BQL stands for below the quantifiable limit of 2.0 ng/mL)
same,CSF Concentration,"[3]; PO, 0.5 h, individual animals",4.3 ng/mL and BQL (BQL stands for below the quantifiable limit of 2.0 ng/mL)
same,CSF Concentration,"[3]; PO, 1.0 h, individual animals",5.3 ng/mL and 32 ng/mL and 6.7 ng/mL
same,CSF Concentration,"[3]; PO, 2.0 h, individual animals",2.8 ng/mL and 3.1 ng/mL
same,CSF Concentration,"[3]; PO, 4.0 h, individual animals",139 ng/mL and 56 ng/mL
same,CSF Concentration,"[3]; PO, 8.0 h, individual animals",BQL (BQL stands for below the quantifiable limit of 2.0 ng/mL) and 1.6 ng/mL and 20 ng/mL
same,CSF Concentration,"[3]; PO, 12 h, individual animals",1.5 ng/mL and 11 ng/mL
same,CSF Concentration,"[3]; PO, 24 h, individual animals",BQL (BQL stands for below the quantifiable limit of 2.0 ng/mL)
same,concentration at 1 h,"[3]; rat, CSF, iv, 1 mg/kg, 1.0 h, mean",11 ng/mL
same,concentration at 0.5 h,"[3]; rat, CSF, iv, 1 mg/kg, IV, 0.5 h, mean, read-out: CSF Concentration, Mean",33 ng/mL
same,concentration at 2 h,"[3]; rat, CSF, iv, 1 mg/kg, IV, 2.0 h, individual animals, read-out: CSF Concentration",4.9 ng/mL
same,concentration at 2 h,"[3]; rat, CSF, iv, 1 mg/kg, IV, 2.0 h, mean, read-out: CSF Concentration, Mean",4.9 ng/mL
same,concentration at 4 h,"[3]; rat, CSF, iv, 1 mg/kg, IV, 4.0 h, individual animals, read-out: CSF Concentration",15 ng/mL
same,concentration at 4 h,"[3]; rat, CSF, iv, 1 mg/kg, IV, 4.0 h, mean, read-out: CSF Concentration, Mean",15 ng/mL
same,concentration at 8 h,"[3]; rat, CSF, iv, 1 mg/kg, IV, 8.0 h, individual animals, read-out: CSF Concentration",1.4 ng/mL
same,concentration at 8 h,"[3]; rat, CSF, iv, 1 mg/kg, IV, 8.0 h, mean, read-out: CSF Concentration, Mean",1.4 ng/mL
same,concentration at 1 h,"[3]; rat, CSF, po, 10 mg/kg, 1.0 h, mean",15 ng/mL
same,concentration at 12 h,"[3]; rat, CSF, po, 10 mg/kg, 12 h, mean",6.5 ng/mL
same,concentration at 0.5 h,"[3]; rat, CSF, po, 10 mg/kg, PO, 0.5 h, individual animals, read-out: CSF Concentration",2.7 ng/mL
same,concentration at 0.5 h,"[3]; rat, CSF, po, 10 mg/kg, PO, 0.5 h, mean, read-out: CSF Concentration, Mean",3.5 ng/mL
same,concentration at 2 h,"[3]; rat, CSF, po, 10 mg/kg, PO, 2.0 h, individual animals, read-out: CSF Concentration",3.6 ng/mL
same,concentration at 2 h,"[3]; rat, CSF, po, 10 mg/kg, PO, 2.0 h, mean, read-out: CSF Concentration, Mean",3.2 ng/mL
same,concentration at 4 h,"[3]; rat, CSF, po, 10 mg/kg, PO, 4.0 h, mean, read-out: CSF Concentration, Mean",97.4 ng/mL
same,concentration at 8 h,"[3]; rat, CSF, po, 10 mg/kg, PO, 8.0 h, mean, read-out: CSF Concentration, Mean",11 ng/mL
same,concentration at 24 h,"[3]; rat, CSF, po, 10 mg/kg, PO, 24 h, individual animals, read-out: CSF Concentration",2 ng/mL
same,concentration at 24 h,"[3]; rat, CSF, po, 10 mg/kg, PO, 24 h, mean, read-out: CSF Concentration, Mean",2 ng/mL
"COc1cc(NS(=O)(=O)c2cccc(C(=O)O)c2)cc(OC)c1 [Compound A3, 3-(N-(3,5-dimethoxyphenyl)sulfamoyl)benzoic acid]",Mean Height,"[1]; human, 0 h, 1 μM","4,210"
same,Mean Height,"[1]; human, 0.5 h, 1 μM","4,100"
same,Mean Height,"[1]; human, 1 h, 1 μM","3,660"
same,Mean Height,"[1]; human, 2 h, 1 μM","3,440"
same,Mean Height,"[1]; human, 4 h, 1 μM","3,850"
same,% Remaining,"[1]; human, 0 h, 1 μM",100%
same,% Remaining,"[1]; human, 0.5 h, 1 μM",97%
same,% Remaining,"[1]; human, 1 h, 1 μM",87%
same,% Remaining,"[1]; human, 2 h, 1 μM",82%
same,% Remaining,"[1]; human, 4 h, 1 μM",91%
"CC(C)[C@H](N)C(=O)OCCOCn1cnc2c(=O)[nH]c(N)nc21 [Valacyclovir, reference compound]",Mean Height,[1]; [4],"21,400"
same,Peak Height,[1]; [4],"21,201 and 21,603"
same,Mean Height,[1]; [5],"20,700"
same,Peak Height,[1]; [5],"21,055 and 20,329"
same,Mean Height,"[1]; fresh human plasma, 1.00 μM, room temperature, 1 h","20,500"
same,Peak Height,"[1]; fresh human plasma, 1.00 μM, room temperature, 2 h","19,941 and 19,624"
same,Mean Height,[1]; [6],"17,700"
same,Peak Height,[1]; [6],"17,697 and 17,785"
same,Mean Height,"[1]; human, 2 h, 1 μM","19,800"
same,% Remaining,"[1]; human, 0 h, 1 μM",100%
same,% Remaining,"[1]; human, 0.5 h, 1 μM",96.7%
same,% Remaining,"[1]; human, 1 h, 1 μM",95.8%
same,% Remaining,"[1]; human, 2 h, 1 μM",92.5%
same,% Remaining,"[1]; human, 4 h, 1 μM",82.7%
